# Patent US20220364056A1, “SHORT-CHAIN FATTY ACID PENTANOATE AS ENHANCER FOR CELLULAR THERAPY AND ANTI-TUMOR THERAPY” (PHILIPPS-UNIVERSITÄT MARBURG, priority 2019, published 2022)
# How the values were obtained:
# [1] = tested on: CD8+ cytotoxic T lymphocytes (CTLs); assay: murine CTLs cultivated under suboptimal conditions with SCFAs; cytokines and effector molecules by flow cytometry and ELISA; assay type: cell-based
# Description: It is known that the glycolytic metabolic pathway promotes IFN-γ expression and T cell effector function. […] We next investigated if acetylation of H4 was increased at CTL-characteristic loci (Ifnγ, Tbx21 and Eomes) after treatment of CTLs with pentanoate. […] Due to the high level of heterogeneity and plasticity within T lymphocytes, we next investigated possible effects of pentanoate on other CD8^+ T cell subtypes. […] To gain further insight into possible therapeutic strategies, we next investigated the impact of pentanoate on human CD8^+ T lymphocytes.
# (A) Experimental design for the treatment of CTLs with the water-soluble fraction of intestinal content derived from SPF or GF mice. (B and C) Frequencies of IFN-γ- and TNF-α-producing CTLs treated with the extract from luminal content derived from indicated organs. Representative results of two experiments are shown (n=3). (D) ELISA was performed to measure the secretion of TNF-α by CLTs treated as shown in (A). (E) Quantitative measurement of total SCFA amounts in fecal samples of SPF and GF mice (n=5). (F and G) The percentage of IFN-γ^+ TNF-α^+ CTLs treated with the indicated SCFAs for three days (n=3, one of three independent experiments is shown). (H) The secretion of TNF-α from CTLs treated with SCFAs was determined by ELISA (n=3, one of two independent experiments is shown). (I) The fluorogenic HDAC assay was applied to measure the HDAC inhibitory activity of SCFAs on CTLs. The value for unstimulated CTLs was arbitrarily set to 1.0. Four independent experiments were performed. (J and K) Representative contour plots (J) and bar graphs (K) showing the frequency of IFN-γ+ and TNF-α+ cells after pentanoate (2 mM) or VPA (0.5 mM) administration. Three similar experiments were performed. (L and M) The frequency of Eomes- and T-bet-expressing CTLs treated with pentanoate (2 mM) or VPA (0.5 mM) for three days was analyzed by flow cytometry (n=4). (N) ChIP assay showing the acetylation of histone H4 at the promoter regions of Ifnγ and Eomes genes after 24 hours of treatment of CTLs with pentanoate. Data are from pooled chromatin of three mice.
# Representative histogram plots (A) and bar graphs (B) are showing the frequency of Annexin V^+ cells. Three similar experiments were performed. (C) Representative effector molecule staining of CD8^+ T cells polarized under suboptimal CTL-inducing conditions, treated with pentanoate or TSA (10 nM Sigma-Aldrich) in presence of 2-DG (1 mM, Sigma-Aldrich) or rapamycin (100 nM, Sigma-Aldrich) for 3 days. Three independent experiments were performed. (D) Western blot analysis of H3Ac and H4Ac in CD8^+ T cells treated with SCFAs for 3 days. (E) Pan-H4Ac ChIP qPCR analysis for Tbx21 promoter accessibility in pentanoate-treated CTLs. Data are from pooled chromatin of three mice. (F and G) CD8^+ T cells isolated from WT and Tbx21^−/− mice were polarized under suboptimal CTL-inducing conditions in presence of increasing pentanoate concentrations. Representative contour plots (F) and bar graphs (G) show the frequency of IFN-γ+ and IL-17A^+ cells. Two similar experiments were performed. […]
# histones H3 and H4 = assay: Western blot of H3Ac and H4Ac in CD8+ T cells; assay type: cell-based, murine; conditions: SCFAs for 3 days
# Description: Representative histogram plots (A) and bar graphs (B) are showing the frequency of Annexin V^+ cells. Three similar experiments were performed. (C) Representative effector molecule staining of CD8^+ T cells polarized under suboptimal CTL-inducing conditions, treated with pentanoate or TSA (10 nM Sigma-Aldrich) in presence of 2-DG (1 mM, Sigma-Aldrich) or rapamycin (100 nM, Sigma-Aldrich) for 3 days. Three independent experiments were performed. (D) Western blot analysis of H3Ac and H4Ac in CD8^+ T cells treated with SCFAs for 3 days. (E) Pan-H4Ac ChIP qPCR analysis for Tbx21 promoter accessibility in pentanoate-treated CTLs. Data are from pooled chromatin of three mice. (F and G) CD8^+ T cells isolated from WT and Tbx21^−/− mice were polarized under suboptimal CTL-inducing conditions in presence of increasing pentanoate concentrations. Representative contour plots (F) and bar graphs (G) show the frequency of IFN-γ+ and IL-17A^+ cells. Two similar experiments were performed.
# HDAC2 = HDAC2 (Homo sapiens, UniProt Q92769); assay: HDAC inhibition of the recombinant HDAC2 isoform; assay type: biochemical; conditions: supernatants; different concentrations of SCFAs
# Description: (A) The production of SCFAs, branched-chain fatty acids (BCFAs) and medium-chain fatty acids (MCFAs) by 16 human commensals was measured by GC-MS. All bacteria were grown in vitro until stationary growth phase before the measurement of fatty acids in supernatants. (B and C) HDAC inhibition of recombinant class I and class II HDAC isoforms by cell-free supernatants derived from 16 members of human commensal community. Significance was tested against YCFA medium. (D) Impact of bacterial SCFAs, BCFAs and MSCFAs on the activity of class I and II HDAC enzymes. TSA was used as a control pan-HDAC inhibitor.
# mTOR = assay: phosphorylation of mTOR and S6 in human CTLs; assay type: cell-based; conditions: three days
# Description: (A and B) CTLs were cultured in medium containing 1.0% FCS and treated with pentanoate (2.5 mM) for three days. Representative histogram plots and bar graphs indicate the phoshorylated levels of mTOR (A) and S6 ribosomal protein (B), respectively (n=3 pooled from three independent experiments). (C and D) Human CTLs were cultured in medium containing 1.0% serum and treated with indicated HDACi for three days. Representative histogram plots and bar graphs indicate the phoshorylated levels of mTOR (C) and S6 ribosomal protein (D), respectively (data points represent four individual healthy donors) (E) Measurement of extracellular acidification rate (ECAR) for in vitro generated murine CTLs cultured with or without 2.5 mM pentanoate for three days. ECAR was measured under basal conditions and in response to glucose (10 mM), oligomycin (2 μM), and 2-deoxy-glucose (2-DG, 100 mM). One of three independent experiments is shown.
# HDAC2, sequence (Q92769 whole entry, species assumed, canonical isoform): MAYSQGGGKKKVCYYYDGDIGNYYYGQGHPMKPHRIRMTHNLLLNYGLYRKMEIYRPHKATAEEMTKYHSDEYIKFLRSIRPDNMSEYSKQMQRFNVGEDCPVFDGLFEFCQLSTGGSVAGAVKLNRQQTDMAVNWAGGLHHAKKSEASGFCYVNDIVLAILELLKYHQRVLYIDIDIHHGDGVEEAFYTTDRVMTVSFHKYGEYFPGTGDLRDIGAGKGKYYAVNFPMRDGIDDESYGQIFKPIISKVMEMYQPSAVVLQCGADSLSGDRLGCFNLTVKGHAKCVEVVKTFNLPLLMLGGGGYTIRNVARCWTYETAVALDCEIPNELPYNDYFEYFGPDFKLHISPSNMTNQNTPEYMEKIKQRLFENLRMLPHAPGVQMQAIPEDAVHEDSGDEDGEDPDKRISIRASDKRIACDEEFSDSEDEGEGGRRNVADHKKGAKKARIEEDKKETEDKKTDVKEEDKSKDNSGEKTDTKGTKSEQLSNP
structure (smiles),measurement,setting,value
CCCCC(=O)O [pentanoate],frequencies of TNF-α+ IFN-γ+ cells,"[1]; CTLs, suboptimal conditions, SCFAs for three days",substantial increase
same,secretion of TNF-α by CTLs,"[1]; ELISA, CTLs treated with SCFAs",substantial increase
same,secretion of IL-2 by CTLs,"[1]; ELISA, indicated time points",robustly produced IL-2 in a prolonged manner
same,production of IFN-γ by T-bet-deficient CTLs,"[1]; Tbx21-/- vs WT, increasing pentanoate concentrations",partially defective production
same,expression of TNF-α and IFN-γ in CTLs,[1]; pentanoate 2 mM or VPA 0.5 mM,potently enhanced
same,CTL-related transcription factors T-bet and Eomes in CD8+ T cells,"[1]; pentanoate 2 mM or VPA 0.5 mM, three days",strongly induced
same,reversal of the effect on granzyme B+IFN-γ+ cells by rapamycin,[1]; rapamycin 100 nM co-treatment,could not be reversed
same,percentage of CD25+IFN-γ+ cells in in vitro generated CTLs,[1]; three days,strongly enhanced
same,percentages of granzyme B+IFN-γ+ CD8+ T cells,"[1]; vs control CTLs, TSA 10 nM, 3 days",substantially enhanced
same,acetylation of histones H3 and H4,histones H3 and H4,increased acetylation
same,inhibition of the HDAC2 isoform,HDAC2,strongly inhibited
same,phosphorylation level of S6 ribosomal protein,mTOR,elevated the phosphorylation levels
same,phosphorylation level of mTOR,mTOR,elevated the phosphorylation levels
